Legend:
Staphylococcus aureus [1] = assay: Antibacterial activity against Staphylococcus aureus by measuring zone of inhibition at 100 ug/ml after 24 hrs; format: functional; conditions: read-out: IZ
Pseudomonas aeruginosa [2] = assay: Antibacterial activity against Pseudomonas aeruginos by measuring zone of inhibition at 100 ug/ml after 24 hrs; format: functional; conditions: read-out: IZ
Fusarium oxysporum [3] = assay: Antifungal activity against Fusarium oxysporum by measuring zone of inhibition at 100 ug/ml after 48 hrs; format: functional; conditions: read-out: IZ
Aspergillus flavus [4] = assay: Antifungal activity against Aspergillus flavus by measuring zone of inhibition at 100 ug/ml after 48 hrs; format: functional; conditions: read-out: IZ
Escherichia coli [5] = assay: Antibacterial activity against Escherichia coli by measuring zone of inhibition at 100 ug/ml after 24 hrs; format: functional; conditions: read-out: IZ
Bacillus subtilis [6] = assay: Antibacterial activity against Bacillus subtilis by measuring zone of inhibition at 100 ug/ml after 24 hrs; format: functional; conditions: read-out: IZ
Fusarium oxysporum [7] = assay: Antifungal activity against Fusarium oxysporum by measuring zone of inhibition at 30 ug after 48 hrs; format: functional, organism-based
Aspergillus flavus [8] = assay: Antifungal activity against Aspergillus flavus by measuring zone of inhibition at 30 ug after 48 hrs; format: functional, organism-based
Pseudomonas aeruginosa [9] = assay: Antibacterial activity against Pseudomonase aeruginosa by measuring zone of inhibition at 30 ug after 24 hrs; format: functional; conditions: read-out: IZ
Bacillus subtilis [10] = assay: Antibacterial activity against Bacillus subtilis by measuring zone of inhibition at 30 ug after 24 hrs; format: functional; conditions: read-out: IZ
Escherichia coli [11] = assay: Antibacterial activity against Escherichia coli by measuring zone of inhibition at 30 ug after 24 hrs; format: functional; conditions: read-out: IZ
Staphylococcus aureus [12] = assay: Antibacterial activity against Staphylococcus aureus by measuring zone of inhibition at 30 ug after 24 hrs; format: functional; conditions: read-out: IZ

| Molecule | zone of inhibition at 100 µg/mL (Staphylococcus aureus [1]) [mm] | zone of inhibition at 100 µg/mL (Pseudomonas aeruginosa [2]) [mm] | zone of inhibition at 100 µg/mL (Fusarium oxysporum [3]) [mm] | zone of inhibition at 100 µg/mL (Aspergillus flavus [4]) [mm] | zone of inhibition at 100 µg/mL (Escherichia coli [5]) [mm] | zone of inhibition at 100 µg/mL (Bacillus subtilis [6]) [mm] | inhibition zone (IZ) (Fusarium oxysporum [7]) [mm] | inhibition zone (IZ) (Aspergillus flavus [8]) [mm] | zone of inhibition at 30 µg/disc (Pseudomonas aeruginosa [9]) [mm] | zone of inhibition at 30 µg/disc (Bacillus subtilis [10]) [mm] | zone of inhibition at 30 µg/disc (Escherichia coli [11]) [mm] | zone of inhibition at 30 µg/disc (Staphylococcus aureus [12]) [mm] |
| --- | --- | --- | --- | --- | --- | --- | --- | --- | --- | --- | --- | --- |
| COc1ccc2oc(=O)c3c(c2c1)Nc1ccccc1N3 | 8 | 7 | 6 | 5 | 6 | 5 | – | – | – | – | – | – |
| O=c1oc2ccc([N+](=O)[O-])cc2c2c1Nc1ccccc1N2 | 5 | 4 | 3 | 4 | 4 | 4 | – | – | – | – | – | – |
| Cc1cc2c(cc1C)Nc1c(c(=O)oc3ccc(Br)cc13)N2 | 9 | 7 | 5 | 4 | 6 | 7 | – | – | – | – | – | – |
| O=c1oc2ccc(Cl)cc2c2c1Nc1ccccc1N2 | 6 | 5 | 4 | 3 | 4 | 3 | – | – | – | – | – | – |
| Cc1ccc2oc(=O)c3c(c2c1)Nc1ccccc1N3 | 3 | 4 | 2 | 2 | 3 | 2 | – | – | – | – | – | – |
| NYSTATIN | – | – | – | – | – | – | 8 | 9 | – | – | – | – |
| COc1ccc2oc(=O)c3c(c2c1)Nc1cc(C)c(C)cc1N3 | 11 | 10 | 8 | 6 | 9 | 9 | – | – | – | – | – | – |
| Cc1cc2c(cc1C)Nc1c(c(=O)oc3ccc([N+](=O)[O-])cc13)N2 | 5 | 5 | 4 | 4 | 4 | 4 | – | – | – | – | – | – |
| CN[C@@H]1[C@H](O[C@H]2[C@H](O[C@H]3[C@H](O)[C@@H](O)[C@H](N=C(N)N)[C@@H](O)[C@@H]3N=C(N)N)O[C@@H](C)[C@]2(O)C=O)O[C@@H](CO)[C@H](O)[C@H]1O [STREPTOMYCIN] | – | – | – | – | – | – | – | – | 10 | 10 | 11 | 12 |
| O=c1oc2ccccc2c2c1Nc1ccccc1N2 | 2 | 3 | 3 | 2 | 2 | 1 | – | – | – | – | – | – |
| Cc1ccc2oc(=O)c3c(c2c1)Nc1cc(C)c(C)cc1N3 | 5 | 5 | 4 | 2 | 4 | 3 | – | – | – | – | – | – |
| Cc1cc2c(cc1C)Nc1c(c(=O)oc3ccc(F)cc13)N2 | 6 | 8 | 4 | 3 | 7 | 5 | – | – | – | – | – | – |
| O=c1oc2ccc(F)cc2c2c1Nc1ccccc1N2 | 5 | 4 | 3 | 2 | 3 | 3 | – | – | – | – | – | – |
| Cc1cc2c(cc1C)Nc1c(c(=O)oc3ccccc13)N2 | 4 | 4 | 3 | 2 | 3 | 2 | – | – | – | – | – | – |
| O=c1oc2ccc(Br)cc2c2c1Nc1ccccc1N2 | 8 | 6 | 5 | 4 | 5 | 4 | – | – | – | – | – | – |
| Cc1cc2c(cc1C)Nc1c(c(=O)oc3ccc(Cl)cc13)N2 | 7 | 9 | 4 | 3 | 8 | 5 | – | – | – | – | – | – |

Source: ChEMBL document CHEMBL1146174, “Synthesis of antimicrobial 2,9,10-trisubstituted-6-oxo-7,12-dihydro-chromeno[3,4-b]quinoxalines” (2006)
